Laboratory results taken from article PMC7865522, “Analyzing Kinase Similarity in Small Molecule and Protein Structural Space to Explore the Limits of Multi-Target Screening” (Molecules, 2021).

Experiments:
PI3K [1] = molecular target: T1, PI3K (Homo sapiens, UniProt P42336); experiment: DiscoverX KINOMEscan competition binding assay; parameters: purchased DiscoverX (KINOMEscan service); host or cells: E. coli BL21-derived host (T7 phage) or HEK-293; settings: compound 10 µM; lower values = higher affinity; below 35% = significant binding
Procedure: Ligand binding experiments for the molecules selected from Profiles 1 and 2 towards nine kinases (EGFR, ErbB2, LCK, CDK2, BRAF, MET, p38α, PI3K and VEGFR2) and for molecules selected from Profiles 3 and 4 towards four kinases (EGFR, ErbB2, BRAF and VEGFR2) were carried out by DiscoverX using the supplied protocol as described in the Supplementary Materials. Briefly, ligand affinity was measured by competition with a resin-bound standard ligand and washed-off kinase concentration was determined via qPCR.
Summarizing, binding of a compound to a kinase was tested in comparison to a control compound (see Table S2). […]
1.1. DiscoverX kinase assay
For most assays, kinase-tagged T7 phage strains were grown in parallel in 24-well blocks in an E.coli host derived from the BL21 strain. E.coli were grown to log-phase and infected with T7 phage from a frozen stock (multiplicity of infection = 0.4) and incubated with shaking at 32°C until lysis (90-150 minutes). The lysates were centrifuged (6,000 x g) and ﬁltered (0.2µm) to remove cell debris.
The remaining kinases were produced in HEK-293 cells and subsequently tagged with DNA for qPCR detection. Streptavidin-coated magnetic beads were treated with biotinylated small molecule ligands for 30 minutes at room temperature to generate afﬁnity resins for the kinases. The liganded beads were blocked with excess biotin and washed with blocking buffer (SeaBlock [Pierce], 1% BSA, 0.05% Tween 20, 1 mM DTT) to remove unbound ligands and to reduce non-speciﬁc phage binding. Binding reactions were assembled by combining kinases, liganded afﬁnity beads, and test compounds in 1x binding buffer (20% SeaBlock, 0.17x PBS, 0.05% Tween 20, 6 mM DTT). Test compounds were prepared as 40x stocks in 100% DMSO and directly diluted into the assay. All reactions were performed in polypropylene 384-well plates in a ﬁnal volume of 0.02 ml. The assay plates were incubated at room temperature with shaking for 1 hour and the afﬁnity beads were washed with wash buffer (1x PBS, 0.05% Tween 20). The beads were then re-suspended in elution buffer (1x PBS, 0.05% Tween 20, 0.5 µM non-biotinylated afﬁnity ligand) and incubated at room temperature with shaking for 30 minutes. The kinase concentration in the eluates was measured by qPCR. […]
Table S2. Experimental % control values from the DiscoverX kinase assay. Compounds were tested against the nine kinases EGFR, ErbB2, LCK, CDK2, BRAF, MET, p38α, PI3K and VEGFR2, unless otherwise stated. Binding of kinase and compound were tested at a compound concentration of 10 µM and in comparison to a control compound. Lower values indicate a higher afﬁnity of the compound to the protein and values below 35% indicate signiﬁcant binding according to information of the CRO. […]
a Compounds were only tested against four kinases (EGFR, ErbB2, BRAF and VEGFR2). b Compound was selected independently from two docking proﬁles and tested separately during
Target sequence in this assay (P42336 whole entry): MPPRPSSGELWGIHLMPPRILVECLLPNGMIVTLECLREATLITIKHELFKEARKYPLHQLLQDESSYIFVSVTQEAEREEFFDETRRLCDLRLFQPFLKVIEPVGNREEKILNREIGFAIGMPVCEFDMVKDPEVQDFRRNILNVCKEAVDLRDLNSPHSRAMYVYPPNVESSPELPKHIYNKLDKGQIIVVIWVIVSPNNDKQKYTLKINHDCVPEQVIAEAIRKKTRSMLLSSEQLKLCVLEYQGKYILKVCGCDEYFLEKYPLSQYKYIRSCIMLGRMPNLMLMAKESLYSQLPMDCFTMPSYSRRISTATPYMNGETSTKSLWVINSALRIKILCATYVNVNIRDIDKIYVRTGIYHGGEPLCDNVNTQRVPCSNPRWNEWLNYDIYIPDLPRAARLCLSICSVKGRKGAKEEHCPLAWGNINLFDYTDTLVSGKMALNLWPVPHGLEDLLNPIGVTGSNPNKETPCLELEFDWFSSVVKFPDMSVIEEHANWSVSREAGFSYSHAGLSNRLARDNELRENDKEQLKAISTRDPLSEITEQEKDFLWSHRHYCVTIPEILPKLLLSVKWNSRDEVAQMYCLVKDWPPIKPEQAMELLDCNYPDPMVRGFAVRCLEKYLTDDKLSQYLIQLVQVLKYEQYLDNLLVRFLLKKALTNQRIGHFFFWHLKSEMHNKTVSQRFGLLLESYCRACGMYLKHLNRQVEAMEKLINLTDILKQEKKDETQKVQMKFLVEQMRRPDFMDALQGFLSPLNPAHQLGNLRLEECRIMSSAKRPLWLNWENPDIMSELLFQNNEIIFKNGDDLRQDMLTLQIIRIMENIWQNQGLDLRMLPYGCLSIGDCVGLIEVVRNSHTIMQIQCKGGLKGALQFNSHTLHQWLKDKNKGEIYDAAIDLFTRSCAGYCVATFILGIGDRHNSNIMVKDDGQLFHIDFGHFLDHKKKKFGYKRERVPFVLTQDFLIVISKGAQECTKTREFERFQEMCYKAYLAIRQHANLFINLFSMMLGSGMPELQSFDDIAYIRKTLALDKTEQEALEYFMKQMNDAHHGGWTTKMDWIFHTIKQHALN

EGFR [2] = molecular target: T2, EGFR (Homo sapiens, UniProt P00533); experiment: Eurofins in vitro kinase inhibition assay; format: biochemical; settings: compound 20 µM; mean (SD); above 50% significant, 25-50% weak
T2 construct: purchased DiscoverX (KINOMEscan service); host or cells: E. coli BL21-derived host (T7 phage) or HEK-293
Procedure: (§1) Kinase inhibition assays for EGFR, ErbB2, PI3K and BRAF were carried out by Eurofins Cerep following the protocols of Weber et al. (EGFR), Quian et al. (ErbB2), Sinnamon et al. (PI3K) and Kupcho et al. (BRAF). Briefly, except for PI3K, compounds were incubated with the respective kinase, ATP, and a substrate analog, and the effect of each compound on phosphorylation was measured. In the case of PI3K, the displacement of biotinylated PIP3 from a PIP3-binding complex by unlabelled PIP3 (produced from PIP2 by PI3K) was measured by Homogeneous Time Resolved Fluorescence (HTRF).
(§2) Finally, inhibition of the respective kinases is calculated as the percentage inhibition of control activity.
(§3) Table S3. Experimental results from the Euroﬁns assay. Inhibition of four kinases (EGFR, PI3K, ErbB2, BRAF) was measured at compound concentrations of 20 µM. Inhibition was calculated as % inhibition of control activity. According to CRO, values above 50% inhibition represent signiﬁcant inhibition, values above 25% weak inhibition effect and values below 25% as well as negative values are usually not signiﬁcant. Results are reported in mean (SD) format. […]
(§4) a Compound interfered with assay readout.

BRAF [3] = molecular target: T3, BRAF (Homo sapiens, UniProt P15056); experiment: Eurofins in vitro kinase inhibition assay; format: biochemical; settings: compound 20 µM; mean (SD); above 50% significant, 25-50% weak
T3 construct: purchased DiscoverX (KINOMEscan service); host or cells: E. coli BL21-derived host (T7 phage) or HEK-293
Procedure: as §1, §2, §3, §4

ErbB2 [4] = molecular target: T4, ErbB2 (Homo sapiens, UniProt P04626); experiment: Eurofins in vitro kinase inhibition assay; format: biochemical; settings: compound 20 µM; mean (SD); above 50% significant, 25-50% weak
T4 construct: purchased DiscoverX (KINOMEscan service); host or cells: E. coli BL21-derived host (T7 phage) or HEK-293
T4 sequence (P04626 23-1255): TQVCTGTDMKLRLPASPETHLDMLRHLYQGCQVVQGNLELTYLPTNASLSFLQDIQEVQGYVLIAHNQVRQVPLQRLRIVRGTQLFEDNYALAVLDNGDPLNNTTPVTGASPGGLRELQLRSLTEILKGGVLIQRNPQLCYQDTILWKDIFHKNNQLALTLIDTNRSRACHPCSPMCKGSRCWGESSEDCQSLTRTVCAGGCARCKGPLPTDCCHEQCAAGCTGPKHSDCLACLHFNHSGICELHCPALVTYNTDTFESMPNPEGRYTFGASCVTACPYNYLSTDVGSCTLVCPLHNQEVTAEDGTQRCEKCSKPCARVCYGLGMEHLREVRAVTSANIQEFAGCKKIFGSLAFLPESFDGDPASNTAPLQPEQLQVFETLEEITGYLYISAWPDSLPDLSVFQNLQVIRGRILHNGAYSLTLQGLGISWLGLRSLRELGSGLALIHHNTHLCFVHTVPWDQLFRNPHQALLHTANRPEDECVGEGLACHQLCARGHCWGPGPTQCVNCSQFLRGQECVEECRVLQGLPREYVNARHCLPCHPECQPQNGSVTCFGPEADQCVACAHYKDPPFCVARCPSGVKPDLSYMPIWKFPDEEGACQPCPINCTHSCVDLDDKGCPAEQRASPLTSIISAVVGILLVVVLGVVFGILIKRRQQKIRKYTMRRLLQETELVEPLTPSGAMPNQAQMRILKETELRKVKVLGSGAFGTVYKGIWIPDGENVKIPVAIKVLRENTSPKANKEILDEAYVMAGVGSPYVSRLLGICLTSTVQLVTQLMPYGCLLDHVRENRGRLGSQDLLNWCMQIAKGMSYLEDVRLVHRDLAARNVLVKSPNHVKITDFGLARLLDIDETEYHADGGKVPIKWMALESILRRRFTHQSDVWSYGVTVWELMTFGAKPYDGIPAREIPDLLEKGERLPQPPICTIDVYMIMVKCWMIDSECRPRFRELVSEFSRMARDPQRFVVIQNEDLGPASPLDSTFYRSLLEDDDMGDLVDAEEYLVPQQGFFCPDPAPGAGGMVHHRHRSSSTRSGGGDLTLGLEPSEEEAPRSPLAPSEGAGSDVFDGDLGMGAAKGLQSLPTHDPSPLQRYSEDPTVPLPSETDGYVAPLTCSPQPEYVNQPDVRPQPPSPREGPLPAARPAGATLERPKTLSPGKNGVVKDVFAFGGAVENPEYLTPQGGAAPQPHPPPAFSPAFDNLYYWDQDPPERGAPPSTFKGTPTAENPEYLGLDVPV
Procedure: as §1, §2, §3, §4

PI3K [5] = molecular target: T1, PI3K; experiment: Eurofins in vitro kinase inhibition assay (HTRF, PIP3 displacement); format: biochemical; parameters: purchased Eurofins Cerep (contract assay); settings: compound 20 µM; mean (SD); above 50% significant, 25-50% weak
Procedure: as §1, §2, §3, §4
Target sequence in this assay (P42336 whole entry): as the sequence (P42336 whole entry) above
Target sequence in this assay (P27986 whole entry partner): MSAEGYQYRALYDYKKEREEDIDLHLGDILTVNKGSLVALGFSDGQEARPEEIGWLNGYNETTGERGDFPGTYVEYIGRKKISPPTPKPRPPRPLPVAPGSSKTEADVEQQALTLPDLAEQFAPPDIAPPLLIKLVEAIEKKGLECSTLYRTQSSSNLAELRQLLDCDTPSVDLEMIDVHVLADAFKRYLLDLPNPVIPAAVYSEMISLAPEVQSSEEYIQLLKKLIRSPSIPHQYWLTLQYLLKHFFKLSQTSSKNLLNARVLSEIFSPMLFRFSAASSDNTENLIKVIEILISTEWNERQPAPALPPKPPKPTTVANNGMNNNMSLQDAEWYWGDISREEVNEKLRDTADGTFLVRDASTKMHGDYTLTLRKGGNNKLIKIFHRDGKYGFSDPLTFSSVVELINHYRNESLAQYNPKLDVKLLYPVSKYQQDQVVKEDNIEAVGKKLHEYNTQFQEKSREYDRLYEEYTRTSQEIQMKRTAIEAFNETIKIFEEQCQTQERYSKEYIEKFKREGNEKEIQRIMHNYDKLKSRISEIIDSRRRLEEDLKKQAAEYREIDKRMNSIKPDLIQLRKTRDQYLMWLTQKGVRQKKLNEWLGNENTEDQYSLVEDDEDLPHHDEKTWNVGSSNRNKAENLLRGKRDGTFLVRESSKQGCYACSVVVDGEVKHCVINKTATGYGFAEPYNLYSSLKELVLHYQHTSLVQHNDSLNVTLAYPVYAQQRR

MET = molecular target: T5, MET (Homo sapiens, UniProt P08581); experiment: DiscoverX KINOMEscan competition binding assay; settings: compound 10 µM; lower values = higher affinity; below 35% = significant binding
T5 construct: purchased DiscoverX (KINOMEscan service); host or cells: E. coli BL21-derived host (T7 phage) or HEK-293
T5 sequence (P08581 25-1390): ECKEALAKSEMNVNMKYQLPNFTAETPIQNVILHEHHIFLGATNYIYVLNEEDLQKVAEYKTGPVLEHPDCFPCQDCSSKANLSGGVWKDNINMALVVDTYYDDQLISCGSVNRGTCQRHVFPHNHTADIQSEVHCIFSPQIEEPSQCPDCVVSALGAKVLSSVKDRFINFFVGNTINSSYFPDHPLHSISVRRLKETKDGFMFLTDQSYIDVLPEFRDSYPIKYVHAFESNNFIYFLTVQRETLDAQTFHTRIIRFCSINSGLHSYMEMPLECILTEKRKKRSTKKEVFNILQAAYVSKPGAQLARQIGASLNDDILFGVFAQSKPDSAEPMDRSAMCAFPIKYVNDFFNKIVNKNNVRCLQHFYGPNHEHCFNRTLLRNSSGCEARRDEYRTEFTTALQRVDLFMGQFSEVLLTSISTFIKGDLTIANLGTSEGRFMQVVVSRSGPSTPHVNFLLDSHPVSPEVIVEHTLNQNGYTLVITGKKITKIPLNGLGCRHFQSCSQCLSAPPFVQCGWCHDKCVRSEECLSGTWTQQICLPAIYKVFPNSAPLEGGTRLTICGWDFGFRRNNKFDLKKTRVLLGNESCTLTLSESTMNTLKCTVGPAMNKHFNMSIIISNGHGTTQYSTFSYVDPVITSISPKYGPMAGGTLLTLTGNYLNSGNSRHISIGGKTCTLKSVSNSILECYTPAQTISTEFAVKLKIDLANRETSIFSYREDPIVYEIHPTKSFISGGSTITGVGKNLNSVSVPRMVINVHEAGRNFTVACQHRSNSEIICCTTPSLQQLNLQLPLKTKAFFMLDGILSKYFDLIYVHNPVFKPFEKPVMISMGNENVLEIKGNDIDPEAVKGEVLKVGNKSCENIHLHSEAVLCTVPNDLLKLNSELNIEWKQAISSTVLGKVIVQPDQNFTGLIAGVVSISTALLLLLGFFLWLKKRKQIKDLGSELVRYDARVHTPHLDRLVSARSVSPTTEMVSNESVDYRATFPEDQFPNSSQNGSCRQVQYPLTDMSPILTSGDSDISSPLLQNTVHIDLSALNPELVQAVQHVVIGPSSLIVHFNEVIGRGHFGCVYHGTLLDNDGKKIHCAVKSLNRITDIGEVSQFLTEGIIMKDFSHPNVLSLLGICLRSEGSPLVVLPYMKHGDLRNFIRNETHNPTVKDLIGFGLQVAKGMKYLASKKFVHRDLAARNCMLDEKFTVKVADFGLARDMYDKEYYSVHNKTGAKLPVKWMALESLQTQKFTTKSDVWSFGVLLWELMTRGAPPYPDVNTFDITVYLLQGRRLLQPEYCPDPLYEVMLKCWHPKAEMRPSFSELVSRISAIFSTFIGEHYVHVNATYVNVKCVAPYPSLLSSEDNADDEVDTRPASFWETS
Method in brief: (§5)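 Single-point test at 10 µM against DNA-tagged kinase (phage or HEK-293 source) binding to an immobilized reference ligand. Remaining bead-bound kinase quantified by qPCR as % of control.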

EGFR [6] = molecular target: T2, EGFR; experiment: DiscoverX KINOMEscan competition binding assay; settings: compound 10 µM; lower values = higher affinity; below 35% = significant binding
Method in brief: as §5

BRAF [7] = molecular target: T3, BRAF; experiment: DiscoverX KINOMEscan competition binding assay; settings: compound 10 µM; lower values = higher affinity; below 35% = significant binding
Method in brief: as §5

VEGFR2 = molecular target: T6, VEGFR2 (Homo sapiens, UniProt P35968); experiment: DiscoverX KINOMEscan competition binding assay; settings: compound 10 µM; lower values = higher affinity; below 35% = significant binding
T6 construct: purchased DiscoverX (KINOMEscan service); host or cells: E. coli BL21-derived host (T7 phage) or HEK-293
Method in brief: as §5

p38α = molecular target: T7, p38α (Homo sapiens, UniProt Q16539); experiment: DiscoverX KINOMEscan competition binding assay; settings: compound 10 µM; lower values = higher affinity; below 35% = significant binding
T7 construct: purchased DiscoverX (KINOMEscan service); host or cells: E. coli BL21-derived host (T7 phage) or HEK-293
Method in brief: as §5

LCK = molecular target: T8, LCK (Homo sapiens, UniProt P06239); experiment: DiscoverX KINOMEscan competition binding assay; settings: compound 10 µM; lower values = higher affinity; below 35% = significant binding
T8 construct: purchased DiscoverX (KINOMEscan service); host or cells: E. coli BL21-derived host (T7 phage) or HEK-293
T8 sequence (P06239 whole entry): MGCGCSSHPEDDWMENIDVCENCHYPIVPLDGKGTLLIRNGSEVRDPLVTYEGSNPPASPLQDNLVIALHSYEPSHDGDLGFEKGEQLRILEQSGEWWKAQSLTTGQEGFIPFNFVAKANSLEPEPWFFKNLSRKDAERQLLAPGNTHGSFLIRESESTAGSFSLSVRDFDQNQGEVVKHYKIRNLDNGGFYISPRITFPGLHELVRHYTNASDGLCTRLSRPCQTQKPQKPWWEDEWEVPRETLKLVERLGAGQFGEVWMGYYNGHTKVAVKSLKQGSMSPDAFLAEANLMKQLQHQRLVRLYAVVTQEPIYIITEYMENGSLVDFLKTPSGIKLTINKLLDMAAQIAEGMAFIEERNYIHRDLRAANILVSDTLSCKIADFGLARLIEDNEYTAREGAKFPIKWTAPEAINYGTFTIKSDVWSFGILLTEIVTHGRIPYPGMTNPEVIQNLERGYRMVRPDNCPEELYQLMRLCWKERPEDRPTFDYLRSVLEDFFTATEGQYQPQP
Method in brief: as §5

ErbB2 [8] = molecular target: T4, ErbB2; experiment: DiscoverX KINOMEscan competition binding assay; settings: compound 10 µM; lower values = higher affinity; below 35% = significant binding
Method in brief: as §5

CDK2 = molecular target: T9, CDK2 (Homo sapiens, UniProt P24941); experiment: DiscoverX KINOMEscan competition binding assay; settings: compound 10 µM; lower values = higher affinity; below 35% = significant binding
T9 construct: purchased DiscoverX (KINOMEscan service); host or cells: E. coli BL21-derived host (T7 phage) or HEK-293
Method in brief: as §5

| % control, PI3K (DiscoverX) (PI3K [1]) [% control] | % inhibition of control activity, EGFR (Eurofins) (EGFR [2]) | % inhibition of control activity, BRAF (Eurofins) (BRAF [3]) | % inhibition of control activity, ErbB2 (Eurofins) (ErbB2 [4]) | % inhibition of control activity, PI3K (Eurofins) (PI3K [5]) | % control, MET (DiscoverX) (MET) [% control] | % control, EGFR (DiscoverX) (EGFR [6]) [% control] | % control, BRAF (DiscoverX) (BRAF [7]) [% control] | % control, VEGFR2 (DiscoverX) (VEGFR2) [% control] | % control, p38α (DiscoverX) (p38α) [% control] | % control, LCK (DiscoverX) (LCK) [% control] | % control, ErbB2 (DiscoverX) (ErbB2 [8]) [% control] | % control, CDK2 (DiscoverX) (CDK2) [% control] | Structure (SMILES) |
| --- | --- | --- | --- | --- | --- | --- | --- | --- | --- | --- | --- | --- | --- |
| 100 | 19.8 (5.0) % inhibition | -12.4 (1.8) % inhibition | 9.8 (21.9) % inhibition | -1.1 (2.1) % inhibition | 78 | 96 | 100 | 99 | 100 | 100 | 87 | 100 | Cc1cc(=O)n2nc(N(C)CC(=O)NCc3cccs3)sc2n1 [DS72975] |
| 97 | 18 (3.2) % inhibition | -0.3 (1.6) % inhibition | -2.8 (0.7) % inhibition | 2.1 (0.4) % inhibition | 100 | 89 | 86 | 100 | 100 | 100 | 100 | 100 | O=C(O)c1cncnc1NCc1nc(-c2cnccn2)n[nH]1 [DS74417] |
| 100 | 11.3 (4.5) % inhibition | -22.8 (15.9) % inhibition | -4.6 (2.9) % inhibition | 20 (5.2) % inhibition | 100 | 97 | 100 | 100 | 83 | 87 | 95 | 100 | CN(C)S(=O)(=O)c1cccc(C2=N/C(=C\c3cccc(F)c3)C(=O)O2)c1 [DS74631] |
| 100 | 23.3 (4.2) % inhibition | -44.9 (24.1) % inhibition | -8.3 (1.2) % inhibition | 22.1 (2.3) % inhibition | 95 | 100 | 100 | 100 | 81 | 90 | 100 | 100 | Cc1ccc(/C=C2\N=C(c3cccc(S(=O)(=O)N(C)C)c3)OC2=O)s1 [DS74871] |
| 100 | 4.3 (6.9) % inhibition | -11.1 (4.9) % inhibition | -0.6 (1.1) % inhibition | 1.7 (0.8) % inhibition | 85 | 100 | 100 | 100 | 87 | 100 | 94 | 100 | O=C(NCC1CC1)Nc1ccc(N2CCOC2=O)cc1 [DS75739] |
| 100 | 3.2 (10.7) % inhibition | -33.6 (18.1) % inhibition | -0.6 (1.0) % inhibition | 17.4 (0.4) % inhibition | 90 | 87 | 89 | 100 | 97 | 100 | 96 | 100 | O=C(Oc1ccc2c3c(c(=O)oc2c1)CCC3)c1cccc(Cl)c1 [DS76514] |
